Data reported in patent US20120302616A1, “METHOD OF TREATMENT OF OBSESSIVE COMPULSIVE DISORDER WITH ONDANSETRON” (priority 2010, published 2012).
Values joined by “and” are separate entries in the source; they are usually repeats but may differ in a detail not shown here. Equal entries are not always repeated.

Key:
[1] = test system: patients with treatment-resistant OCD; test: Ondansetron augmentation of SRI therapy, single-blind 12-week study with 4-week discontinuation follow-up (YBOCS, CGI); type: in vivo, human; design: reduction in CGI-I from baseline: concentration or dose not given beside the values; conditions: for CGI-I Score / YBOCS % Reduction / YBOCS Score: individual patients (21); for Compulsion Subdomain YBOCS % Reduction / Obsession Subdomain YBOCS % Reduction / Compulsion Subdomain YBOCS Score / Obsession Subdomain YBOCS Score: individual patients
Protocol: Twenty-one patients with a DSM-IV diagnosis of treatment-resistant OCD, under stable treatment with SRIs approved by the FDA for OCD therapy, received 12 weeks of single-blind ondansetron augmentation initiated at a dose of 0.25 mg twice daily for 2 weeks, and titrated to 0.5 mg twice daily for 10 weeks. Patients were rated every two weeks using the Yale Brown Obsessive Compulsive Scale (YBOCS) and Clinical Global Impressions Scale (CGI). Treatment-resistant patients were defined as having completed an adequate trial of SRIs at a moderate to high dose for at least 12 weeks and still having a YBOCS severity of >24, and CGI-Severity of ≧4. Treatment response was defined as an additional 25% reduction in YBOCS score from YBOCS score at the initiation of ondansetron augmentation, an end of treatment (EOT) period YBOCS of ≦24, and CGI-Improvement (CGI-I) of ≦2. Additionally, ondansetron was discontinued after 12 weeks and patients were followed up for another 4 weeks for relapse in YBOCs symptoms. The obsession and compulsion subdomains of the Y-BOCS were also analyzed to determine whether ondansetron would selectively affect one subdomain or the other.

[2] = test system: patients with treatment-resistant OCD; test: Side effects and vital signs in the SRI plus antipsychotic augmentation study; type: in vivo, human
Protocol: The Y-BOCS, Montgomery-Asberg Depression Rating Scale (MADRS) (see Montgomery, S. A., BR J PSYCHIATRY 1979; 134:382-389) was administered at screening and baseline, and these assessments were repeated at every follow-up visit at 2-week intervals, along with the Clinical Global Impressions-Improvement (CGI-I) rating (see Guy, W. ECDEU Assessment Manual for Psychopharmacology. US Dept Health, Education, and Welfare publication (ADM) 76-338. Rockville, Md.: National Institute of Mental Health; 1976:218-222) and an unpublished Drug Effect scale. The Drug Effect scale asked subjects to rate “How anxious are you now?” on a scale of zero (not at all) to 10 (“the most anxious I have ever been”). Similar rating questions have been “Do you experience appearance or increment in frequency of headaches?”, “Do you experience appearance or increment in frequency of headaches fatigue?” and “Do you experience appearance or increment in frequency of headaches constipation” and so on regarding other common ondansetron side effects (diarrhea, urinary retention, itching, and dizziness). Furthermore, each evening during the first week of study medication, a study psychiatrist called the subject to ask for major or unexpected collateral effects (as chest pain, an unexplained skin rash, or tremors.). […] (See Mittmann, N. et al., AM J PSYCHIATRY 1997; 154:320-321) Subjects with MADRS scores ≧18 were excluded. Ratings were administered by an investigator who was blind to the treatment condition of the patients.
One patient reported a mild increase in anxiety levels, which lasted only one night. No change in mean pulse rate or mean blood pressure was observed. […] The daily dose of 1 mg/day divided in twice daily administration, approximately 5% of the minimum dose recommended for emesis and nausea treatment was reached after 6 weeks and maintained until the 12th week.

[3] = test system: mesenteric bed or the nerves in the heart; conditions: animal studies; cited from earlier work
[4] = Week 14 (after discontinuation), Non-Responders
[5] = Week 14 (after discontinuation), Responders
[6] = Week 16 (after discontinuation), Non-Responders
[7] = Week 16 (after discontinuation), Responders
[8] = first 2 weeks of treatment, n=14

Cc1nccn1CC1CCc2c(c3ccccc3n2C)C1=O (stereo not drawn) [ondansetron]
tolerability of treatment ([1]; 0.25 mg twice daily 2 weeks, then 0.5 mg twice daily 10 weeks): well tolerated
CGI-I Score ([1]; 6 Weeks): 2 (7×) and 3 (2×) and 5 (6×) and 1 (3×) and 4 (3×)
YBOCS % Reduction ([1]; 6 Weeks): 16.00% and 0.00% (3×) and 5.00%
YBOCS Score ([1]; 6 Weeks): 22 and 19 (3×) and 28 and 21 (2×) and 27 and 24 (2×) and 14 and 29 (3×) and 38 and 32 and 17 and 25 and 16 and 26 and 31
Compulsion Subdomain YBOCS % Reduction ([1]; 6 weeks, Non-Responders): −7.14% and 5.00% and −13.33% and −15.38% and 13.33% and 14.29% and 0.00% and 12.50% and −16.67%
Obsession Subdomain YBOCS % Reduction ([1]; 6 weeks, Non-Responders): 16.67% and 0.00% (3×) and 5.00% and −7.69% and −6.67% and 6.25% and 12.50%
Compulsion Subdomain YBOCS % Reduction ([1]; 6 weeks, Responders): 38.46% and 33.33% (2×) and 29.41% and 52.94% and 25.00% and 58.33% and 50.00% and 18.75% and 53.33% and 40.00% and 16.67%
Obsession Subdomain YBOCS % Reduction ([1]; 6 weeks, Responders): 26.67% and 35.29% and 25.00% (3×) and 31.25% and 33.33% and 23.08% and 20.00% and 29.41% and 28.57% and 15.38%
CGI-I Score ([1]; 12 Weeks): 1 (10×) and 5 (8×) and 4 and 2 (2×)
YBOCS % Reduction ([1]; 12 Weeks): 44.00% and 50.00% and 2.50% and −7.14%
YBOCS Score ([1]; 12 Weeks): 21 (2×) and 17 and 28 and 14 (2×) and 16 (3×) and 19 (2×) and 23 and 13 and 25 and 39 and 34 and 30 (2×) and 29 and 15 and 27
average reduction in CGI-I scores for the whole group ([1]; 12 weeks): 46%
Compulsion Subdomain YBOCS % Reduction ([1]; 12 weeks, Non-Responders): 7.14% and 0.00% (2×) and −26.67% and −23.08% and 6.67% and 14.29% and 12.50% and −8.33%
Obsession Subdomain YBOCS % Reduction ([1]; 12 weeks, Non-Responders): 16.67% and 14.29% and 5.00% and 0.00% (2×) and −7.69% and −7.14% and 12.50% (2×)
Compulsion Subdomain YBOCS % Reduction ([1]; 12 weeks, Responders): 38.46% and 46.67% (2×) and 41.18% and 58.82% and 45.00% and 58.33% and 64.29% and 43.75% and 53.33% and 33.33% and 41.67%
Obsession Subdomain YBOCS % Reduction ([1]; 12 weeks, Responders): 46.67% and 52.94% and 43.75% (2×) and 44.44% and 33.33% (3×) and 30.77% and 35.29% and 35.71% and 46.15%
difference between YBOCS score at baseline and after 12 weeks ([1]; Non-responders): 2.9%
Compulsion Subdomain YBOCS Score, Mean ([1]; Week 2, Non-Responders): 14.78
Obsession Subdomain YBOCS Score, Mean ([1]; Week 2, Non-Responders): 14.67
Compulsion Subdomain YBOCS Score ([1]; Week 2, Non-Responders): 15
Obsession Subdomain YBOCS Score ([1]; Week 2, Non-Responders): 12
Compulsion Subdomain YBOCS Score, Mean ([1]; Week 2, Responders): 11.33
Obsession Subdomain YBOCS Score, Mean ([1]; Week 2, Responders): 12.58
Compulsion Subdomain YBOCS Score ([1]; Week 2, Responders): 11 and 12 (5×) and 10 (3×) and 16 and 5 and 14
Obsession Subdomain YBOCS Score ([1]; Week 2, Responders): 12 (4×) and 14 (3×) and 10 and 11 (2×) and 13 and 16
Compulsion Subdomain YBOCS Score, Mean ([1]; Week 4, Non-Responders): 15.00
Obsession Subdomain YBOCS Score, Mean ([1]; Week 4, Non-Responders): 14.44
Compulsion Subdomain YBOCS Score ([1]; Week 4, Non-Responders): 15
Obsession Subdomain YBOCS Score ([1]; Week 4, Non-Responders): 11
Compulsion Subdomain YBOCS Score, Mean ([1]; Week 4, Responders): 10.08
Obsession Subdomain YBOCS Score, Mean ([1]; Week 4, Responders): 11.50
Compulsion Subdomain YBOCS Score ([1]; Week 4, Responders): 9 (3×) and 11 (2×) and 12 and 14 and 5 and 10 (2×) and 13 and 8
Obsession Subdomain YBOCS Score ([1]; Week 4, Responders): 11 (3×) and 13 (4×) and 12 (2×) and 9 and 10 (2×)
Compulsion Subdomain YBOCS Score, Mean ([1]; Week 6, Non-Responders): 15.00
Obsession Subdomain YBOCS Score, Mean ([1]; Week 6, Non-Responders): 14.56
Compulsion Subdomain YBOCS Score ([1]; Week 6, Non-Responders): 15
Obsession Subdomain YBOCS Score ([1]; Week 6, Non-Responders): 10
Compulsion Subdomain YBOCS Score, Mean ([1]; Week 6, Responders): 9.50
Obsession Subdomain YBOCS Score, Mean ([1]; Week 6, Responders): 10.83
Compulsion Subdomain YBOCS Score ([1]; Week 6, Responders): 8 (2×) and 10 (3×) and 12 and 15 and 5 and 7 (2×) and 13 and 9
Obsession Subdomain YBOCS Score ([1]; Week 6, Responders): 11 (4×) and 12 (4×) and 9 (2×) and 10 (2×)
Compulsion Subdomain YBOCS Score, Mean ([1]; Week 8, Non-Responders): 15.22
Obsession Subdomain YBOCS Score, Mean ([1]; Week 8, Non-Responders): 14.44
Compulsion Subdomain YBOCS Score ([1]; Week 8, Non-Responders): 13
Obsession Subdomain YBOCS Score ([1]; Week 8, Non-Responders): 10
Compulsion Subdomain YBOCS Score, Mean ([1]; Week 8, Responders): 8.83
Obsession Subdomain YBOCS Score, Mean ([1]; Week 8, Responders): 10.00
Compulsion Subdomain YBOCS Score ([1]; Week 8, Responders): 8 and 9 (2×) and 10 (3×) and 7 and 15 and 5 (2×) and 12 and 6
Obsession Subdomain YBOCS Score ([1]; Week 8, Responders): 8 (2×) and 10 (5×) and 12 (3×) and 9 (2×)
Compulsion Subdomain YBOCS Score, Mean ([1]; Week 10, Non-Responders): 15.44
Obsession Subdomain YBOCS Score, Mean ([1]; Week 10, Non-Responders): 14.44
Compulsion Subdomain YBOCS Score, Mean ([1]; Week 10, Responders): 8.17
Obsession Subdomain YBOCS Score, Mean ([1]; Week 10, Responders): 9.33
Compulsion Subdomain YBOCS Score ([1]; Week 10, Responders): 8 (3×) and 9 and 10 (2×) and 7 and 11 (2×) and 5 (2×) and 6
Obsession Subdomain YBOCS Score ([1]; Week 10, Responders): 8 (3×) and 10 (4×) and 9 (4×) and 12
Compulsion Subdomain YBOCS Score, Mean ([1]; Week 12, Non-Responders): 15.22
Obsession Subdomain YBOCS Score, Mean ([1]; Week 12, Non-Responders): 14.22
Compulsion Subdomain YBOCS Score, Mean ([1]; Week 12, Responders): 7.92
Obsession Subdomain YBOCS Score, Mean ([1]; Week 12, Responders): 8.83
Compulsion Subdomain YBOCS Score ([1]; Week 12, Responders): 8 (3×) and 10 (2×) and 7 (3×) and 11 and 5 (2×) and 9
Obsession Subdomain YBOCS Score ([1]; Week 12, Responders): 8 (4×) and 9 (4×) and 10 (2×) and 11 and 7
Compulsion Subdomain YBOCS Score, Mean [1, 4]: 15.00
Obsession Subdomain YBOCS Score, Mean [1, 4]: 14.00
Compulsion Subdomain YBOCS Score, Mean [1, 5]: 10.67
Obsession Subdomain YBOCS Score, Mean [1, 5]: 11.25
Compulsion Subdomain YBOCS Score [1, 5]: 8 (2×) and 13 (3×) and 11 (3×) and 6 and 12 (2×) and 10
Obsession Subdomain YBOCS Score [1, 5]: 9 (2×) and 14 (2×) and 12 (3×) and 13 and 11 (2×) and 8 and 10
Compulsion Subdomain YBOCS Score, Mean [1, 6]: 14.78
Obsession Subdomain YBOCS Score, Mean [1, 6]: 13.67
Compulsion Subdomain YBOCS Score, Mean [1, 7]: 11.50
Obsession Subdomain YBOCS Score, Mean [1, 7]: 11.67
Compulsion Subdomain YBOCS Score [1, 7]: 8 (2×) and 13 (4×) and 14 and 12 (2×) and 15 and 6 and 11
Obsession Subdomain YBOCS Score [1, 7]: 9 (2×) and 15 and 13 and 12 (3×) and 14 (2×) and 8 and 11 (2×)
overall ondansetron effects for obsessions versus compulsions ([1]; YBOCS subdomains): comparable
reduction in CGI-I from baseline ([1]; responders, after 12 weeks): 77%
reduction in YBOCS from baseline ([1]; responders, after 12 weeks): 44%
subjects with significant or lasting side effects (such as constipation) ([2]; 12 weeks): None
subjects with significant side effects or worsening of OC symptoms ([2]; at 6 weeks, fourteen subjects): None
patients with decreased appetite [2, 8]: two
patients with headache [2, 8]: two
patients with mild increase in anxiety levels ([2]; lasted only one night, n=14): One
mean pulse rate or mean blood pressure ([2]; n=14): No change
Side effects severity ([2]; throughout the study, n=14): mild to moderate
effect on the mesenteric bed or the nerves in the heart [3]: did not appear to have effect
